Measurements reported in US20090123518A1, “Biodegradable implants with controlled bulk density” (priority 2007, published 2009).

Test: Osmotic pressure of the drug in water
Format: physicochemical
Conditions: in water at room temperature
From the text: As an example of this discovery, the inventors selected leuprolide acetate as a sample compound. The inventors then experimentally determined that the osmotic pressure of leuprolide acetate in water is approximately 5 atmospheres at room temperature.
“Osmotic pressure of the drug” means the pressure that must be applied to a solution to prevent the net flow of solvent molecules (such as water) through a semipermeable membrane from a solution of lower drug concentration to a solution of higher drug concentration. The osmotic pressure of the drug can be experimentally determined with use of a vapor pressure osmometer, such as the Vapro® vapor pressure osmometer.

osmotic pressure: approximately 5 atmospheres
Structure (SMILES): CCNC(=O)[C@@H]1CCCN1C(=O)[C@H](CCCNC(=N)N)NC(=O)[C@H](CC(C)C)NC(=O)[C@@H](CC(C)C)NC(=O)[C@H](Cc1ccc(O)cc1)NC(=O)[C@H](CO)NC(=O)[C@H](Cc1c[nH]c2ccccc12)NC(=O)[C@H](Cc1c[nH]cn1)NC(=O)[C@@H]1CCC(=O)N1 [leuprolide acetate]
